What was measured:
human RET kinase = target: T1, human RET kinase (Homo sapiens, UniProt P07949); assay: RET Kinase Assay (LanthaScreen TR-FRET enzymatic assay); format: biochemical; conditions: 7 nM RET, 23 μM ATP
T1 construct: purchased Carna 08-159
Procedure, shortened: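 Human RET (7 nM) preincubated 15 min with compound in 50 mM HEPES pH 7.5, 0.0015% Brij-35, then reacted with 3 μM FAM-P2 peptide and 23 μM ATP for 1 h at 28° C.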

human KDR kinase = target: T2, human KDR kinase (Homo sapiens, UniProt P35968); assay: KDR Kinase Assay (LanthaScreen TR-FRET enzymatic assay); format: biochemical; conditions: 1.2 nM KDR, 92 μM ATP
T2 construct: purchased Carna 08-191
T2 sequence (P35968 20-1356): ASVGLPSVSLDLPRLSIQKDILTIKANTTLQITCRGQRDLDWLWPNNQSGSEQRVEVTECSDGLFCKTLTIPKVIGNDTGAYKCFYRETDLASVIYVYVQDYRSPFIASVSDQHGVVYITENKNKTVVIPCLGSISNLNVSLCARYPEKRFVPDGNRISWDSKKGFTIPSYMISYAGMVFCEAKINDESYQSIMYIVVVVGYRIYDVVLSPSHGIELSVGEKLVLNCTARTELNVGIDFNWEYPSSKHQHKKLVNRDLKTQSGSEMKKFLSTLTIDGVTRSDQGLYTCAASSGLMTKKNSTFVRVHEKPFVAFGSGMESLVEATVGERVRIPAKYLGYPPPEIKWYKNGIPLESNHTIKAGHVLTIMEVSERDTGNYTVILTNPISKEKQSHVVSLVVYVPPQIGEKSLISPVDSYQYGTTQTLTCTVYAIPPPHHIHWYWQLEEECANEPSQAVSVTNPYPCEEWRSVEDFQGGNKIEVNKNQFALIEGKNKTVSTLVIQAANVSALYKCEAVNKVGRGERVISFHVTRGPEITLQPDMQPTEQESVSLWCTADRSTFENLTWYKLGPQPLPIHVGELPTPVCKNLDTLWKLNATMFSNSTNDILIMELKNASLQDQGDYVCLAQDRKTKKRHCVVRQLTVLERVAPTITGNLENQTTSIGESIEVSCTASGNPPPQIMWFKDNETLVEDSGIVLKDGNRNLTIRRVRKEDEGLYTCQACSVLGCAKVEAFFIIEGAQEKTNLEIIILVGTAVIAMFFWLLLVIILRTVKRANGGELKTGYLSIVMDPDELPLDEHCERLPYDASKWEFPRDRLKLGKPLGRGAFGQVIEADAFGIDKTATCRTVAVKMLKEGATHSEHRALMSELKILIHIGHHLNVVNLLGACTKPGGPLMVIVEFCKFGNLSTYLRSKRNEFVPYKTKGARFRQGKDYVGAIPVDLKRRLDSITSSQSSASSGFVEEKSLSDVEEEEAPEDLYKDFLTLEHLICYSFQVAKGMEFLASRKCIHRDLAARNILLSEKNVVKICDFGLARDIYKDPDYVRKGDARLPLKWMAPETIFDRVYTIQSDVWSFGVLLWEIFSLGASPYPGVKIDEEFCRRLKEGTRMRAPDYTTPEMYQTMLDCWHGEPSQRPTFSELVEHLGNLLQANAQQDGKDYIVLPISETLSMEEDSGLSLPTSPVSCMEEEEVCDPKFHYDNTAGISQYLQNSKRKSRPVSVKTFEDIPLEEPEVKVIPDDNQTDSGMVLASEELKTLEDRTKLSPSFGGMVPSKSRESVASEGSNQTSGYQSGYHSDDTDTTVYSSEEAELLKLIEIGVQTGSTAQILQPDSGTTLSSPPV
Procedure, shortened: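 Recombinant human KDR (1.2 nM) preincubated 15 min at room temperature with compound, then reacted with 3 μM FAM-P22 peptide and 92 μM ATP in 50 mM HEPES pH 7.5 for 1 h at 28° C. EDTA stop, then TR-FRET acceptor/donor ratio read; percent of 1% DMSO control fitted sigmoidally for IC50.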

TT cells = assay: TT Cell Proliferation Assay (WST-8, 8 days); format: cell-based; conditions: Homo sapiens, TT, 192 h, growth inhibition in TT cells, read-out: TT Cellular Activity
Procedure, shortened: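 TT cells, 6,000/well in RPMI-1640 with 10% FBS, attached 24 h, then exposed to compound at 5 μM down to 0.0005 μM final (0.5% DMSO) for 8 days at 37 °C. WST-8 added for 5 h, absorbance at 450 nm. IC50 calculated from the dilution series.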

T1 sequence (P07949 29-1114): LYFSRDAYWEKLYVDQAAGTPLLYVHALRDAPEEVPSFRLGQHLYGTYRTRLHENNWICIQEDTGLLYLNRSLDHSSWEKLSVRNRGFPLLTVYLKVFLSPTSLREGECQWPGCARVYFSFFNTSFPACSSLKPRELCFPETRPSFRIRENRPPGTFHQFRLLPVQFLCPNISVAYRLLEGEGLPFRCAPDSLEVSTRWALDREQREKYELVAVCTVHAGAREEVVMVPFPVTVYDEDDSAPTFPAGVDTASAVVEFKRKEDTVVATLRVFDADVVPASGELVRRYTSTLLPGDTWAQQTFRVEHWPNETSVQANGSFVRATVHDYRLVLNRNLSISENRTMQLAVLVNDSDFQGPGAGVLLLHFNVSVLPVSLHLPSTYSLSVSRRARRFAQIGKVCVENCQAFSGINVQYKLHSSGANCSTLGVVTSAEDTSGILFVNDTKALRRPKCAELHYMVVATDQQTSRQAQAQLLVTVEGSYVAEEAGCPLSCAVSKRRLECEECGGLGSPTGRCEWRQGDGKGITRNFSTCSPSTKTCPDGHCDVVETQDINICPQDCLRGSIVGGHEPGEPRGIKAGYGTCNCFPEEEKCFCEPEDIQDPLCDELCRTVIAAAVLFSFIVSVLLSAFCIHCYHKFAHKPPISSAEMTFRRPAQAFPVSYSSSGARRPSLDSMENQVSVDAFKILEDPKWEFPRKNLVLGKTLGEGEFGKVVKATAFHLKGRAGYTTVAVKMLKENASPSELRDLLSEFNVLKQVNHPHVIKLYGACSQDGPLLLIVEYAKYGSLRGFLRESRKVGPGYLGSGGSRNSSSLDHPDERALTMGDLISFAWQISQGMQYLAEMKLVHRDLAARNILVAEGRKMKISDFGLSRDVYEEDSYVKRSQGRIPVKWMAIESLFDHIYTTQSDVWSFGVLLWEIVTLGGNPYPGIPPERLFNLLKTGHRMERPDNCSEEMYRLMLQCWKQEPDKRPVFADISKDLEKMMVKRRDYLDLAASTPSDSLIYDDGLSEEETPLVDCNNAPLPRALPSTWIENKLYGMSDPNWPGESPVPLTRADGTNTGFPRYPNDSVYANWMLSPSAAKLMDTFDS

Row | SMILES | IC50 (human RET kinase) [nM] | IC50 (human KDR kinase) [nM] | IC50 (TT cells) [nM]
1 | Cn1cc(-c2cc(-c3ccc(N4C[C@@H]5[C@@H](CNC(=O)c6c(F)cccc6Cl)[C@@H]5C4)nc3)c3c(C#N)cnn3c2)cn1 [Example 83, 2-chloro-N-(((1R,5S,6s)-3-(5-(3-cyano-6-(1-methyl-1H-pyrazol-4-yl)pyrazolo[1,5-a]pyridin-4-yl)pyridin-2-yl)-3-azabicyclo[3.1.0]hexan-6-yl)methyl)-6-fluorobenzamide] | ≤ 10 | 10 to 50 | ≤ 10
2 | CC(C)(O)COc1cc(-c2ccc(N3C[C@@H]4C[C@@](C)(NC(=O)c5ncccc5F)C[C@@H]4C3)nc2)c2c(C#N)cnn2c1 [Example 128, N-((3aR,5s,6aS)-2-(5-(3-cyano-6-(2-hydroxy-2-methylpropoxy)pyrazolo[1,5-a]pyridin-4-yl)pyridin-2-yl)-5-methyloctahydrocyclopenta[c]pyrrol-5-yl)-3-fluoropicolinamide] | ≤ 10 | 10 to 50 | 10 to 50
3 | CC(O)COc1cc(-c2ccc(N3C[C@@H]4[C@@H](CNC(=O)c5ncccc5Cl)[C@@H]4C3)nc2)c2c(C#N)cnn2c1 (stereo partly drawn) [Example 124, 3-chloro-N-(((1R,5S,6s)-3-(5-(3-cyano-6-(2-hydroxypropoxy)pyrazolo[1,5-a]pyridin-4-yl)pyridin-2-yl)-3-azabicyclo[3.1.0]hexan-6-yl)methyl)picolinamide] | ≤ 10 | > 100 | 10 to 50
4 | CC(C)C(O)C(=O)NC[C@H]1[C@H]2CN(c3ccc(-c4cc(-c5cnn(C)c5)cn5ncc(C#N)c45)cn3)C[C@@H]12 (stereo partly drawn) [Example 77, N-(((1R,5S,6r)-3-(5-(3-cyano-6-(1-methyl-1H-pyrazol-4-yl)pyrazolo[1,5-a]pyridin-4-yl)pyridin-2-yl)-3-azabicyclo[3.1.0]hexan-6-yl)methyl)-2-hydroxy-3-methylbutanamide] | ≤ 10 | ≤ 10 | ≤ 10
5 | COc1ccc(C(=O)N[C@]2(C)C[C@H]3CN(c4ccc(-c5cc(OCC(C)(C)O)cn6ncc(C#N)c56)cn4)C[C@H]3C2)cn1 [Example 126, N-((3aR,5s,6aS)-2-(5-(3-cyano-6-(2-hydroxy-2-methylpropoxy)pyrazolo[1,5-a]pyridin-4-yl)pyridin-2-yl)-5-methyloctahydrocyclopenta[c]pyrrol-5-yl)-6-methoxynicotinamide] | 10 to 50 | 10 to 50 | 50 to 100

More lines, main results first:

Row | IC50 (human RET kinase) [nM] | IC50 (human KDR kinase) [nM] | SMILES | IC50 (TT cells) [nM]
6 | ≤ 10 | 50 to 100 | CCOc1cc(-c2ccc(N3C[C@@H]4C[C@@](C)(NC(=O)c5c(F)cccc5Cl)C[C@@H]4C3)nc2)c2c(C#N)cnn2c1 [Example 66, 2-chloro-N-((3aR,5s,6aS)-2-(5-(3-cyano-6-ethoxypyrazolo[1,5-a]pyridin-4-yl)pyridin-2-yl)-5-methyloctaliydrocyclopenta[c]pyrrol-5-yl)-6-fluorobenzamide] | 10 to 50
7 | ≤ 10 | 10 to 50 | Cc1ccc(F)cc1C(=O)NC[C@@H]1[C@H]2CN(c3ccc(-c4cc(-c5cnn(C)c5)cn5ncc(C#N)c45)cn3)C[C@@H]12 [Example 81, N-(((1R,5S,6s)-3-(5-(3-cyano-6-(1-methyl-1H-pyrazol-4-yl)pyrazolo[1,5-a]pyridin-4-yl)pyridin-2-yl)-3-azabicyclo[3.1.0]hexan-6-yl)methyl)-5-fluoro-2-methylbenzamide] | ≤ 10
8 | ≤ 10 | ≤ 10 | Cn1cc(-c2cc(-c3ccc(N4C[C@@H]5C[C@@](C)(NS(=O)(=O)c6c(F)cccc6Cl)C[C@@H]5C4)nc3)c3c(C#N)cnn3c2)cn1 [Example 59, 2-chloro-N-((3aR,5s,6aS)-2-(5-(3-cyano-6-(1-methyl-1H-pyrazol-4-yl)pyrazolo[1,5-a]pyridin-4-yl)pyridin-2-yl)-5-methyloctahydrocyclopenta[c]pyrrol-5-yl)-6-fluorobenzenesulfonamide] | ≤ 10
